Here are results for 3 compounds from PubChem BioAssay (NCI).

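Where inhibition never reached the appropriate level, the endpoint shown equals the highest concentration tested. Otherwise, values were interpolated linearly from a five-concentration, 48-hour dose response in 96-well plates. TGI marks complete inhibition of growth.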 Bounds are passed on as bounds.

Among the test systems are K-562 leukemia; HCT-15 colon; LXFL 529 NSCLC; OVCAR-8 ovarian; UACC-62 melanoma; A498 renal; UACC-257 melanoma; BT-549 breast; SNB-78 CNS; SK-MEL-28 melanoma.
Experiment in all cases: NCI anticancer screen, dose series, 48 h

Turning to `Nc1ccc(C(=O)N/C(=C\c2cccc([N+](=O)[O-])c2)c2nc3[nH]c(=S)[nH]c(=O)c3[nH]2)cc1`, the TGI is more than 100 µM in the test on K-562 leukemia; more than 100 µM in the test on HCT-15 colon; more than 100 µM in the test with LXFL 529 NSCLC; more than 90.3 µM in the test on OVCAR-8 ovarian; more than 56.2 µM in the test with UACC-62 melanoma; more than 100 µM with A498 renal. In addition, the TGI with UACC-257 melanoma, in the test on BT-549 breast, in the test on SNB-78 CNS and with SK-MEL-28 melanoma was more than 100 µM throughout.

With `Cc1ccc(S(=O)(=O)SC(C)(C)C)cc1`, the TGI in the test with K-562 leukemia is 54.4 µM; with HCT-15 colon, 53 µM; with LXFL 529 NSCLC, more than 100 µM; with OVCAR-8 ovarian, 48.3 µM; in the test on UACC-62 melanoma it was 48.6 µM; in the test with A498 renal it was more than 100 µM. Besides, the TGI in the test with UACC-257 melanoma is 50.3 µM; in the test on BT-549 breast, 42.3 µM; in the test on SNB-78 CNS it was more than 100 µM; in the test on SK-MEL-28 melanoma it was more than 100 µM.

Regarding `CCOC(=O)Oc1cc2c(c(OC)c1OC)-c1ccc(OC)c(=O)cc1C(NC(C)=O)CC2` (stereo not given), the TGI with K-562 leukemia was more than 81.3 µM; in the test with HCT-15 colon, more than 100 µM; with LXFL 529 NSCLC, more than 100 µM; in the test with OVCAR-8 ovarian, 19.7 µM; in the test with UACC-62 melanoma, 25.2 µM; in the test with A498 renal, 3.38 µM. The TGI in the test on UACC-257 melanoma, with BT-549 breast, in the test with SNB-78 CNS and with SK-MEL-28 melanoma was more than 100 µM each time.
